Measured values reported in patent US20090156668A1, “Ginkgolide Compounds, Compositions, And Extracts, And Uses Thereof” (priority 2004, published 2009).
Like-named read-outs stand apart in the source and are kept apart here.

Columns and labels:
[1] = target: platelet activating factor (Homo sapiens, UniProt P25105); details: analogs obtained as racemates, cited from earlier work
[2] = tested on: beta-amyloid (1-42)-induced inhibition of long-term potentiation in the CA1 region of hippocampal slices; format: cell-based, mice
[3] = read-out: anti-PAF IC50; analogs obtained as racemates; cited from earlier work
[4] = tested on: rat hippocampal neuron cultures; assay: neuroprotection assay: beta amyloid-induced neuronal cell death, viable cells by cell nuclei counting; details: for number of viable cells (control = 100%): ginkgolide 1 μM + oligomeric amyloid beta, mean±SEM of 3 experiments

Chain of platelet activating factor (P25105 whole entry): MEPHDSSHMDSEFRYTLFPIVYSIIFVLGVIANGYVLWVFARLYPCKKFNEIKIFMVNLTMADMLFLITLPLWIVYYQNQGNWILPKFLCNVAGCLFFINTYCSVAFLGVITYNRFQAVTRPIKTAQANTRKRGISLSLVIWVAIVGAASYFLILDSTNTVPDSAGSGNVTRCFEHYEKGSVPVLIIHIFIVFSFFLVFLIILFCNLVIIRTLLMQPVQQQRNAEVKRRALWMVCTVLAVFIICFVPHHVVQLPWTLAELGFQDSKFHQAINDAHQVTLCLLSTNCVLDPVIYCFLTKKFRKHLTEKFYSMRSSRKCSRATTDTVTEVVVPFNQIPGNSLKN

Molecule	rescue of LTP (L-LTP) impairment in slices treated with Aβ [2]	number of viable cells (control = 100%) ([4]; 24 h) [%]	further results
CC1C(=O)OC2CC34C5CC(C(C)(C)C)C36C(=O)C(=O)OC6OC4(C(=O)O5)C21O (centres unmarked) [10-keto analog]			IC50 ([1]; read-out: anti-PAF IC50): 3.9 µM
CC(C)(C)[C@]1(O)CC2OC(=O)CC23C(=O)OC2OC(=O)[C@H](O)C231 (some centres unmarked) [BB, bilobalide]	does not rescue L-LTP impairment		
C[C@@H]1C(=O)O[C@H]2CC34C5C[C@@H](C(C)(C)C)C36C(OC(=O)[C@@H]6O)OC4(C(=O)O5)[C@]21O (some centres unmarked) [Ginkgolide A]	rescued the LTP to the same values recorded in control untreated slices	50.5±5.7	IC50 [3]: 1.9 µM; consistently able to prevent amyloid beta-induced cell death ([4]; ginkgolide 1 μM, 24 h): not
C[C@@H]1C(=O)O[C@H]2CC34C5OC(=O)C3(OC3OC(=O)[C@H](O)C34[C@H](C(C)(C)C)[C@H]5O)[C@]21O (some centres unmarked) [Ginkgolide J]	rescued the LTP to the same values recorded in control untreated slices	70.7±1.4	consistently able to prevent amyloid beta-induced cell death [4]: consistently able to prevent cell death; more cells than the other treatments [4]: approximately 40%; prevention of amyloid beta toxicity [4]: appeared to completely prevent amyloid beta toxicity
Ginkgolide B [GB]	does not rescue L-LTP impairment		IC50 ([1]; read-out: anti-PAF activity IC50): 0.6 µM
Ginkgolide C [GC]	does not rescue L-LTP impairment		
